Laboratory results from patent US20250345295A1, “LMK235 COMPOSITIONS AND METHODS” (UNM Rainforest Innovations, priority 2024, published 2025).
Entries after “also recorded” stand apart in the source; their conditions may differ.

Experiments:
Format in all cases: in vivo, mouse
[1] = test system: BALBc mice with FRICT-ION nerve injury; assay: von Frey mechanical threshold, FRICT-ION trigeminal nerve injury model; settings: male and female BALBc FRICT-ION mice, 5 mg/kg s.c. daily in week 3, vs vehicle
Source text: The FRICT-ION chronic neuropathic pain model combines the chemical irritation of chromic gut suture with some physical compression of the maxillary branch (V2) of the trigeminal nerve. FRICT-ION model was induced in 9-week-old mice anesthetized briefly with isoflurane (2-3%). Intraoral surgical incision was made with a small scalpel puncture at the buccal cheek crease. A piece of chromic gut suture (3 mm length, 4-0) was placed parallel to the infraorbital nerve (ION) and pushed into the tight space to follow the trigeminal nerve as it passes into the foramen rotundum of the skull. The model simulates blunt force traumatic injury to the nerve, residual wound debris, or other irritation. […]
[…] Withdrawal thresholds were determined weekly with von Frey fiber stimulation on the snout. […]
Mechanical and cold sensitivity was modified for face as previously described (Montera M A, Westlund K N, Bio-protocol2020 April 20; 10(8):e3591-e3591; Lyons et al., Neuroscience 2015 Jun. 4; 295:126-138; Ma et al., Mol Brain 2012 Dec. 28; 5:44; Montera et al., Channels (Austin). 2021 December; 15(1):31-37). Briefly, animals were gently restrained and the mechanical threshold for nocifensive head withdrawal was determined using calibrated von Frey filaments (0.008 g-6.0 g) using the Up-Down method (Chaplan et al., J Neurosci Methods 1994 July; 53(1):55-63; FIG. 2). […]

[2] = test system: C57BL/6 mice with TIC model; assay: von Frey mechanical threshold, TIC trigeminal nerve injury model
Source text: Mice underwent the TIC nerve injury surgery, a simplified non-ligation variant of the trigeminal CCI-ION model previously described (Lyons et al., Neuroscience 2015 Jun. 4; 295:126-138; Ma et al., MolBrain 2012 Dec. 28; 5:44). Briefly, mice were anesthetized with isoflurane (3-4%) and a piece of chromic gut suture (2 mm length, 6-0) was placed parallel to the infraorbital nerve (ION) adjacent to the maxillary bone infraorbital fissure at a site just under the lower eyelid. Naïve controls underwent anesthesia only. The chronic trigeminal inflammatory compression (TIC) nerve injury model induces measurable changes in evoked reflexive or higher order pain-like and anxiety-like behaviors but are not otherwise detectable.
The HDAC4/5 inhibitor LMK235 (s.c., 5 mg/kg)(N-[[6-(Hydroxyamino)-6-oxohexyl]oxy]-3,5-dimethyl-benzamide) (Cayman Chemical Co., Ann Arbor, MI) was used at previously published dilutions (Bennett G J, Xie Y K. Pain 1988 April; 33:87-107). […] All treatments with the HDACi (5 mg/kg) or vehicle were given daily for seven consecutive days in the neck scruff (s.c.) for comparisons to naïve control mice.
In the first post-treatment study, male C57B1/6 mice were subcutaneously (s.c.) injected daily for seven days beginning in week 3 following the trigeminal nerve insult induced surgically. Withdrawal thresholds were tested weekly with von Frey fiber stimulation on the snout. One TIC mouse behaving erratically on day 1-7 was eliminated from the study.
In the second post-treatment study, C57B1/6 mice were treated daily for 14 days in week 8 and week 9 after the nerve insult. Withdrawal thresholds were determined weekly with von Frey fiber stimulation on the snout until experiment end.
Testing was done by an observer blinded to study group. Von Frey assessment of snout withdrawal threshold was conducted prior to and at least once a week after nerve injury to confirm development of craniofacial neuropathic pain. […]
Mechanical and cold sensitivity was modified for face as previously described (Montera M A, Westlund K N, Bio-protocol2020 April 20; 10(8):e3591-e3591; Lyons et al., Neuroscience 2015 Jun. 4; 295:126-138; Ma et al., Mol Brain 2012 Dec. 28; 5:44; Montera et al., Channels (Austin). 2021 December; 15(1):31-37). Briefly, animals were gently restrained and the mechanical threshold for nocifensive head withdrawal was determined using calibrated von Frey filaments (0.008 g-6.0 g) using the Up-Down method (Chaplan et al., J Neurosci Methods 1994 July; 53(1):55-63; FIG. 2). Cold sensitivity was determined by applying a 10° C. cold coil to the ION's receptive field and measuring the time until an animal withdrew its head (Montera et al., Channels (Austin). 2021 December; 15(1):31-37).

HDAC5 protein = assay: Western blot of TG HDAC5 protein; settings: for TG HDAC5 protein levels: LMK235 treatment
Experimental: Mice were euthanized with pentobarbital (FatalPlus, 480 mg/kg) and both ipsilateral and contralateral TG were removed. TG were washed immediately in PBS and stored at −80° C. Protein from TG tissue was extracted following homogenization using a pestle and 500 μL of 1× RIPA buffer (Thermo Fisher Scientific, Inc., Waltham, MA, Cat #89,900). Samples were put on a rocking shaker for two hours and then centrifuged, and the supernatant removed to a new tube. Sample was assayed for total protein (Bradford, Thermo Fisher Scientific, Inc., Waltham, MA). Samples were then prepared for electrophoresis by mixing with 2× sample buffer and boiling for five minutes at 100° C. for denaturation.
Proteins were loaded on a 12% Tris-Glycine polyacrylamide gradient gel (Bio-Rad Laboratories, Inc., Hercules, CA) and transferred to a PVDF membrane (MilliporeSigma, Burlington, MA). Membrane was blocked for an hour with 5% nonfat milk in TBST buffer at room temperature and incubated at 4° C. with anti-HDAC5 antibody overnight (Abcam, Cambridge, UK, #ab55403, #ab2772, #ab170935). The membrane was subsequently washed with TBST and then incubated with anti-rabbit secondary with HRP for one hour at room temperature (Abcam ab6721, diluted 1:1000 in TBST). The washing was repeated and then the blot developed with chemiluminescent substrate (Thermo Fisher Scientific, Inc., Waltham, MA Cat #32,106). The blot was then imaged using a Li-Cor Odyssey FC imaging system. Signal intensity was normalized to actin (Abcam ab8227, 1:2000) or tubulin (Abcam #ab10287), which was used as a loading control. Signal intensity was analyzed using ImageJ for comparisons.

FRICT-ION mice = assay: Cold probe (10° C.) sensitivity test, FRICT-ION model; settings: 5 mg/kg, vs FRICT-ION+vehicle
Source text: The FRICT-ION chronic neuropathic pain model combines the chemical irritation of chromic gut suture with some physical compression of the maxillary branch (V2) of the trigeminal nerve. FRICT-ION model was induced in 9-week-old mice anesthetized briefly with isoflurane (2-3%). Intraoral surgical incision was made with a small scalpel puncture at the buccal cheek crease. A piece of chromic gut suture (3 mm length, 4-0) was placed parallel to the infraorbital nerve (ION) and pushed into the tight space to follow the trigeminal nerve as it passes into the foramen rotundum of the skull. The model simulates blunt force traumatic injury to the nerve, residual wound debris, or other irritation.
On the day of FRICT-ION model induction in BALBc mice, LMK235 was administered and treatment was continued for seven days. Withdrawal thresholds were determined weekly with von Frey fiber stimulation on the snout. Cold sensitivity on the snout and anxiety were tested once prior to experiment end in week 8-9.
Mechanical and cold sensitivity was modified for face as previously described (Montera M A, Westlund K N, Bio-protocol2020 April 20; 10(8):e3591-e3591; Lyons et al., Neuroscience 2015 Jun. 4; 295:126-138; Ma et al., Mol Brain 2012 Dec. 28; 5:44; Montera et al., Channels (Austin). 2021 December; 15(1):31-37). […]

Cc1cc(C)cc(C(=O)NOCCCCCC(=O)NO)c1 [LMK235, N-[[6-(Hydroxyamino)-6-oxohexyl]oxy]-3,5-dimethyl-benzamide]
mechanical threshold / von Frey hypersensitivity [1]: reverses von Frey hypersensitivity; also recorded: restored mechanical threshold to baseline | mechanical threshold (von Frey), ipsilateral ([2]; C57BL/6 TIC mice, 5 mg/kg s.c., post-treatment 8 weeks after nerve injury, vs vehicle, 5 mg/kg): significantly reversed; also recorded: significantly increased the mechanical threshold | mechanical threshold (von Frey), contralateral side ([2]; TIC mice treated in week 8): complete return to naïve baseline | whisker pad mechanical threshold (von Frey) ([2]; male C57BL/6 TIC mice, 5 mg/kg s.c. daily for seven days in week 3, vs vehicle, 5 mg/kg): reversed to naïve baseline; also recorded: returned whisker pad mechanical threshold to naïve baseline | time mechanical threshold remained at naïve baseline ([2]; male C57BL/6 TIC mice, 5 mg/kg s.c. daily in week 3): 4-6 weeks | TG HDAC protein levels vs untreated FRICT-ION mice (HDAC5 protein; LMK235-treated FRICT-ION mice, males and females): significantly lower | TG HDAC5 protein levels (HDAC5 protein; female FRICT-ION mice): to naïve levels | TG HDAC5 protein levels (HDAC5 protein; male FRICT-ION mice): below naïve levels | cold hypersensitivity (10° C. cold probe on snout) (FRICT-ION mice): significantly improved; also recorded: reduced
